Eight compounds from publication PMC7794245, “Potent DNA gyrase inhibitors bind asymmetrically to their target using symmetrical bifurcated halogen bonds” (Nature Communications, 2021) can be followed below.

The subject of data set [1] is HepG2. In words: Metabolic activity assessment (CellTiter 96 Aqueous One), HepG2. It counts as cell-based. The settings on record: Homo sapiens, 72 h treatment, mean ± SD. The procedure:
(§1) Supplementary Table 7. Results of cytotoxicity studies.
(§2) Metabolic activity assessment
(§3) Cells of the HepG2 line ( ATCC® HB-8065™) and HUVEC ( ATCC® CRL-1730™) were cultured in Dulbecco’s Modified Eagle Medium (DMEM; Sigma-Aldrich, St. Louis, MO, USA) supplemented with 10% heat -deactivated FBS (Gibco, Grand Island/NY, USA), 2 mM L -glutamine, 100 U/mL penicillin, 100 µg/mL streptomycin (all from Sigma -Aldrich) in a humidified chamber at 37 °C and 5% CO2. The experiments were carried out on passages 7 - 9 for both cell lines. The tested compounds were dissolved in DMSO and further diluted in culture medium to a desired final concentration. […]
(§4) 10^4 cells/mL (100 µL/well) and after attachm ent treated with seven different concentration of the selected compounds or corresponding vehicle as control. The metabolic activity was assessed after 72 h treatment using the CellTiter 96 Aqueous One Solution Cell Proliferation Assay (Promega, Madison/WI, USA), in accordance with the manufacturer’s instructions .7 The absorbance was measured at 492 nm on an automated microplate reader BioTek Synergy HT (BioTek Instruments, Inc.). Data are presented as IC 50 value (mean ± SD) from two independent experiments , each conducted in duplicate or triplicate. IC 50 values were calculated by a non -linear regression model using Graph Pad Prism 7 software. […]

The test system of data set [2] is HUVEC. The data set is described as follows: Metabolic activity assessment (CellTiter 96 Aqueous One), HUVEC. It is filed as cell-based. The settings on record: Homo sapiens, 72 h treatment, mean ± SD. The protocol:
as §1, §2, §3, §4

For data set [3], the target named is T1, hERG potassium channel (Homo sapiens, UniProt Q12809).
T1 construct: purchased Invitrogen (kit); assay run at TCG Lifesciences Pvt; Ltd. India
T1 sequence (Q12809 whole entry): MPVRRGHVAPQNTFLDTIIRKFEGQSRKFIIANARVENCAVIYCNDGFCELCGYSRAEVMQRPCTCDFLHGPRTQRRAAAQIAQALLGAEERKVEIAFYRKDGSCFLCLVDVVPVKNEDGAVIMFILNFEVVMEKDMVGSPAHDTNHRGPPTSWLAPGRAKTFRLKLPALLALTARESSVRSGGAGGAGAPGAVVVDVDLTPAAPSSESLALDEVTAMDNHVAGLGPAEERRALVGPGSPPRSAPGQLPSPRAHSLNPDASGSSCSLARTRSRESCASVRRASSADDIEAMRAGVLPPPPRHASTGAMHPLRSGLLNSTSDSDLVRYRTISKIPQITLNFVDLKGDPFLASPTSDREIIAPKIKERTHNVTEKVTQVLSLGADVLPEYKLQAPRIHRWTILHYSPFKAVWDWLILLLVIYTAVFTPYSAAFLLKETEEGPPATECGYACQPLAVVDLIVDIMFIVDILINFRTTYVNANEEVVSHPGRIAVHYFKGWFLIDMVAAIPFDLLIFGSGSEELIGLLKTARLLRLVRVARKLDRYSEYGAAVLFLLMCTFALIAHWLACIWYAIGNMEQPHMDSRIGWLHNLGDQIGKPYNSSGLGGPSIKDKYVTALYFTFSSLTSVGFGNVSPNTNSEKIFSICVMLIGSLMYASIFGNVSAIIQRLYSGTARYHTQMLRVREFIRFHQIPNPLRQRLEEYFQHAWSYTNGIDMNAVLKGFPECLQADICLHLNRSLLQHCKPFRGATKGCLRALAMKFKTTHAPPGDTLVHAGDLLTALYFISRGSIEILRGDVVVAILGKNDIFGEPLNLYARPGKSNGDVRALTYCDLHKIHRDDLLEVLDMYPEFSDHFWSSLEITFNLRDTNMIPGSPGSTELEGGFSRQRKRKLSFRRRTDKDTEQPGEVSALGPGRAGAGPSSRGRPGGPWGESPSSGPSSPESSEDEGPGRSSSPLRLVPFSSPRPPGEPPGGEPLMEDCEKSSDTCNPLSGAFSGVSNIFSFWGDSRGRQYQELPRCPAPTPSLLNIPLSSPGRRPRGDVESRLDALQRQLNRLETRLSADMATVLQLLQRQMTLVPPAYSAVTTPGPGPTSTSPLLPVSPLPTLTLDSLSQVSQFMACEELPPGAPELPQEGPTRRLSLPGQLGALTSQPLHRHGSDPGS
In words: FP-based hERG binding assay (Invitrogen kit). The procedure:
Supplementary Table 7. Results of cytotoxicity studies. […]
Cardiovascular hERG inhibition
Cardiovascular safety profile was entirely outsourced. hERG screening was performed at TCG
Lifesciences Pvt. Ltd. India with FP -based hERG binding assay (Invitrogen kit).
Background: The hERG channel carries a current that helps repolarise heart muscle cells.

Data set [4] concerns E. coli (ATCC 25922). The data set is described as follows: Broth microdilution MIC, E. coli. It counts as cell-based. The settings on record: Escherichia coli, ATCC25922, 20 h, 37 °C. The protocol:
(§5) Antimicrobial assays were performed by the broth microdilution method in 96-well plate format according to the Clinical and Laboratory Standards Institute guidelines[46] and European Committee on Antimicrobial Susceptibility Testing recommendations. First, bacterial suspensions of specific bacterial strains was prepared to obtain density equivalent to 0.5 McFarland turbidity standard, followed by dilution with cation-adjusted Mueller Hinton broth with TES (Thermo Fisher Scientific), to obtain a final inoculum of 10^5 colony-forming units/mL. Compounds were dissolved in DMSO and twofold dilutions were prepared, then inoculum was added and the mixture was incubated for 20 h at 37 °C. After incubation, the MIC values were read off by visual assessment as the lowest dilution of compound showing no turbidity. The MICs were determined against S. aureus (ATCC 29213), MRSA (NCTC12493), E. coli (ATCC 25922), E. coli D22, and E. coli N43 bacterial strains. Tetracycline was used as a positive control on every assay plate, displaying MICs of 0.5 and 1 μg/mL for S. aureus and E. coli, respectively.
Background: Dilution methods test growth across graded concentrations, often in twofold steps.

In data set [5] the test system is S. aureus (ATCC 29213). In words: Broth microdilution MIC, S. aureus. It is filed as cell-based. Particulars: Staphylococcus aureus, ATCC29213, 20 h, 37 °C. The procedure: as §5
Data set [6] deals with T2, S. aureus DNA gyrase (Staphylococcus aureus, UniProt P20831).
T2 construct: purchased Inspiralis (Norwich, UK)
In words: Gyrase Supercoiling High Throughput Plate Assay (fluorescence), S. aureus. It is filed as biochemical. The settings on record: fluorescence-based high throughput plate assay. The procedure:
A Gyrase Supercoiling High Throughput Plate Assay kit, purchased from Inspiralis (Norwich. UK), was used to determine IC50 values of compounds on S. aureus and E. coli gyrase. […] Biotinylated oligonucleotide in wash buffer was immobilized onto the wells, and the excess oligonucleotide was washed off with wash buffer and ultrapure water. […] The reactions were stopped by adding the TF buffer (50 mM NaOAc (pH 4.7), 50 mM NaCl, and 50 mM MgCl2) to allow the triplex formation (biotin–oligonucleotide–plasmid) for an additional 30 min. Afterward, the unbound plasmid was washed off using TF buffer, and the solution of Promega Diamond dye in T10 buffer (10 mM Tris-HCl (pH 8.0), 1 mM EDTA) was added. […] Preliminary screening was performed at four inhibitor concentrations of 100, 10, 1, and 0.1 μM. […] IC50 was calculated using nonlinear regression-based fitting of inhibition curves using log [inhibitor] versus response-variable slope (four parameters)—symmetrical equation in the GraphPad Prism 6.0 software (GraphPad Software, La Jolla, CA, USA, www.graphpad.com). IC50 values represent the mean of two to four independent measurements.
Target sequence in this assay (P20831 whole entry): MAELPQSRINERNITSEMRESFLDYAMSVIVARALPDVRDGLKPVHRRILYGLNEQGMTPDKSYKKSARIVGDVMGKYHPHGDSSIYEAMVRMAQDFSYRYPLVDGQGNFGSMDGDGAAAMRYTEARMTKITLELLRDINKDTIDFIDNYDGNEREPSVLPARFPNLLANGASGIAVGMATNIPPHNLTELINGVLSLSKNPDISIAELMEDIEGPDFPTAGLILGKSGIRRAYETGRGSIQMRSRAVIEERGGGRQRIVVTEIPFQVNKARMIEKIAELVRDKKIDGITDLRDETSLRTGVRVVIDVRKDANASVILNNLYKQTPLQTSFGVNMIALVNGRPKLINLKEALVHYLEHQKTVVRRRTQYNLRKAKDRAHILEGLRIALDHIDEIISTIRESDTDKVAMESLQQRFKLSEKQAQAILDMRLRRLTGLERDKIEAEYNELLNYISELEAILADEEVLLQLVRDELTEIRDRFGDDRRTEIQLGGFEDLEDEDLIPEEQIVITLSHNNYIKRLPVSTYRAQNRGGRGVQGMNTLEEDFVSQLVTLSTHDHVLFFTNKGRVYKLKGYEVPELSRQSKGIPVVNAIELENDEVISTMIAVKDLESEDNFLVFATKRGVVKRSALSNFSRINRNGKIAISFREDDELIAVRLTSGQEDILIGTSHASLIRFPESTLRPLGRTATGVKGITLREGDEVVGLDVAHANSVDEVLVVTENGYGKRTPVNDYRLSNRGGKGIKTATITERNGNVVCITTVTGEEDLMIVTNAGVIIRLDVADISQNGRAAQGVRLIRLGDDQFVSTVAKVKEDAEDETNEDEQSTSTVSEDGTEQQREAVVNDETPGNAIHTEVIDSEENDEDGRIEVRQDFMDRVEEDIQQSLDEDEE
Target sequence in this assay (P0A0K8 whole entry partner): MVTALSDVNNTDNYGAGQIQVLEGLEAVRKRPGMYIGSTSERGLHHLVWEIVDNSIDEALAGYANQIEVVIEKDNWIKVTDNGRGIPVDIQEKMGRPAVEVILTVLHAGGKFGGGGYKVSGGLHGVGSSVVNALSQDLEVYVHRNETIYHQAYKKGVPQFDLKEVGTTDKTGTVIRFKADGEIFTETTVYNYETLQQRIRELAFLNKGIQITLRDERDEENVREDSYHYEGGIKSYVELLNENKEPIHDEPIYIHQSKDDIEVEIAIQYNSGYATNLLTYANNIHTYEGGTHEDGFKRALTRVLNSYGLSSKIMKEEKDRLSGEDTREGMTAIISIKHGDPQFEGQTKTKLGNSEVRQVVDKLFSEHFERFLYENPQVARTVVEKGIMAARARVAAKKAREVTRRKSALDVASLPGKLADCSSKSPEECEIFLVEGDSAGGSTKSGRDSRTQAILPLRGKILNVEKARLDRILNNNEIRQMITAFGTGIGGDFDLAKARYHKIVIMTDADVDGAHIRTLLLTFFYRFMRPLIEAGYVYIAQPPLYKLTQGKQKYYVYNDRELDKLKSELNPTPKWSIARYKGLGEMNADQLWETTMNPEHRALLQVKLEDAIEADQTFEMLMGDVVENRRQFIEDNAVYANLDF

In data set [7] the target is T2, S. aureus DNA gyrase. The data set is described as follows: Gel-based S. aureus Gyrase Supercoiling assay (Inspiralis). It counts as biochemical. The procedure:
gyrase supercoiling assays
In all experiments, the activity of the enzyme was determined prior to the testing of the compounds and 1 U defined as the amount of enzyme required to fully supercoil the substrate. This amount of enzyme was used in all subsequent assays. The final DMSO concentration in all the reactions was 1% (v/v). Compounds were serially diluted in DMSO and added to the reaction before the addition of the […]
Staphylococcus aureus gyrase supercoiling assay
1 U of DNA gyrase was incubated with 0.5 μg of relaxed pBR322 DNA in a 30 μl reaction at 37 °C for 30 min under the following conditions: 40 mM HEPES·KOH (pH 7.6), 10 mM magnesium acetate, 10 mM DTT, 2 mM ATP, 500 mM potassium glutamate and 0.05 mg/ml BSA. Each reaction was stopped by the addition of 30 μl chloroform/iso-amyl alcohol (24:1) and 20 μl Stop Dye (40% sucrose, 100 mM Tris.HCl ( pH 7.5), 10 mM EDTA, 0.5 μg/ml bromophenol blue), before being loaded on a 1.0% TAE (Tris.acetate […], EDTA […]). Gels run at 70V for 3 hours.
Data acquisition and analysis
Bands were visualised by ethidium staining for 10 min, destained for 10 min in water and bands were analysed by gel documentation equipment (Syngene, Cambridge, UK) and quantitated using Syngene Gene Tools software. Raw gel data (fluorescent band volumes) collected from Syngene, GeneTools gel analysis software were converted to a % of the 100% control (the fully supercoiled or relaxed […]
global curve fit non-linear regression tool was used to calculate IC50 data using the following equation:
Equation: Exponential Decay, Single, 2 Parameter f = ae−bx
(1 picture or pasted object on this page, not shown here)
Target sequence in this assay (P20831 whole entry): as the sequence (P20831 whole entry) above
Target sequence in this assay (P0A0K8 whole entry, further chain): as the sequence (P0A0K8 whole entry partner) above

Data set [8] relates to MRSA (NCTC12493). The data set is described as follows: Broth microdilution MIC, MRSA. It counts as cell-based, S. aureus. Particulars: Staphylococcus aureus, 20 h, 37 °C. The protocol: as §5

Converted amounts (≈) assume the structure as drawn. Like-named read-outs stand apart in the source and are kept apart here. Bounds are passed on as bounds.

As for `COc1ccc2nccc(CCN3CCC(NCc4ccc(Cl)cc4)CC3)c2n1` [Compound 4], the IC50 in data set [1] stood at 10160 ± 100 nM; in data set [2], 27000 ± 380 nM; in data set [3], 270 nM.
For `CN(C)[C@@H]1C(O)=C(C(N)=O)C(=O)[C@@]2(O)C(O)=C3C(=O)c4c(O)cccc4[C@@](C)(O)[C@H]3C[C@@H]12` [Tetracycline, reference compound], the MIC is 1 µg/mL (≈ 2.25 µM) in data set [4] and 0.5 µg/mL (≈ 1.13 µM) in data set [5].
For the compound `COc1ccc2nccc(CCN3CCC(NCc4ccccc4)CC3)c2n1` [Compound 2], the half-inhibitory concentration (IC50) came to 17700 ± 2160 nM in data set [1], 54100 ± 3450 nM in data set [2], 1050 nM in data set [3] and 1020 nM in data set [6].
`COc1ccc2nccc(CCN3CCC(NCc4ccc(I)cc4)CC3)c2n1` [Compound 6]: the IC50 in data set [1] is 8470 ± 90 nM; in data set [2], 19000 ± 850 nM; in data set [3] (human, FP-based hERG binding assay kit (Invitrogen)), 180 nM; in data set [7] (read-out: S. aureus gyrase supercoiling IC50 Assay 1, gel-based assay, assay 1), 13 nM; in data set [7] (read-out: S. aureus gyrase supercoiling IC50 Assay 2, gel-based assay, assay 2), 9 nM.
For the compound `COc1ccc2nccc(CCN3CCC(NCc4ccc(Br)cc4)CC3)c2n1` [Compound 5], the half-maximal inhibitory concentration (IC50) was 9370 ± 70 nM in data set [1]; 25420 ± 10 nM in data set [2]; 290 nM in data set [3]; 7 nM in data set [7] (IC50 S. aureus DNA gyrase supercoiling, gel-based assay); 7 nM in data set [7] (S. aureus gyrase supercoiling IC50 Assay 1, gel-based assay, assay 1); 7 nM in data set [7] (S. aureus gyrase supercoiling IC50 Assay 2, gel-based assay, assay 2). The IC50 was 7 nM in data set [7] (S. aureus gyrase supercoiling IC50 Average, gel-based assay, average of assay 1 and 2); 7 nM in data set [7] (S. aureus inhibition (DNA supercoiling IC50), as quoted in point-by-point response); 7 nM in data set [7] (S. aureus inhibition (DNA supercoiling IC50), as quoted in reviewer report).
For `COc1ccc2nccc(CCN3CCC(NCc4ccc(C(N)=O)cc4)CC3)c2n1` [Compound 8], the 50% inhibitory concentration (IC50) in data set [2] was over 50000 nM; in data set [3], 13400 nM.
For the compound `COc1ccc2nccc(CCN3CCC(NCc4ccc(N(C)C)cc4)CC3)c2n1` [Compound 9], the IC50 in data set [1] came to 10030 ± 60 nM; in data set [2] it was 23850 ± 90 nM; in data set [3], 2110 nM; in data set [6] it was 67 nM. In addition, the minimal inhibitory concentration (MIC) was 0.25 µg/mL (≈ 0.596 µM) in data set [8] and 0.125 µg/mL (≈ 0.298 µM) in data set [5].
Consider `COc1ccc2nccc(CCN3CCC(NCc4ccc(F)cc4)CC3)c2n1` [Compound 3], for which the half-maximal inhibitory concentration (IC50) is 12700 ± 210 nM in data set [1], over 50000 nM in data set [2], 590 nM in data set [3] and 550 nM in data set [6].

As usually defined, the IC50 is the concentration that inhibits the measured activity by half. Usually MIC stands for the lowest concentration found to suppress growth. A higher MIC goes with weaker potency.
